Results taken from patent publication US10342773B2, “Composition containing dihomo-γ-linolenic acid (DGLA) as the active ingredient” (SUNTORY HOLDINGS LIMITED, priority 2005, dated 2019).
Read-outs that look alike come from different tables or passages of the source.

Columns and labels:
eosinophil migration = conditions: guinea pigs, cited from earlier work
NC/Nga mice = conditions: cited from earlier work
[1] = in vivo
Protocol: In order to clarify the relationship between the amount of DGLA orally ingested in humans and the internal DGLA level, the amount of DGLA orally ingested was investigated by examination of the diet, and after drawing blood, the amount of DGLA in the serum phospholipids was determined. The subjects were eleven healthy males aged 60-70, and were asked to keep a diary of the content of their diets. From the diary, the amount ingested by each food material was determined for meat, eggs, and seafood known to contain DGLA, and using the DGLA content of each food material calculated from “Fourth revised [sequence] […] From the amount of DGLA ingested per week, the mean amount of DGLA ingested per day was calculated for each person.
On the other hand, blood was drawn the day after the last entry of the diary, and for the serum phospholipid fractions obtained, the fatty acid composition was analyzed according to a standard method. Thus, from the serum the lipid component extracted by the Folch method, a standard method, and the lipid was fractionated on a thin layer chromatography (the developing solution is hexane/diethyl ether=7/3) to obtain the phospholipid fraction. […] The fatty acid methyl ester mixture was analyzed by a capillary gas chromatography to obtain DGLA (% by weight) in the total fatty acids in the serum phospholipid.

Q: Which “eosinophil migration in the delayed type allergy” value (eosinophil migration; intraperitoneal administration of 50 mg) does the source give for `CC/C=C\C/C=C\C/C=C\C/C=C\C/C=C\C/C=C\CCC(=O)OCC` [DHA ethylester] here?
A: can inhibit eosinophil migration

Q: With `CC/C=C\C/C=C\C/C=C\CCCCCCCC(=O)O` [ALA, α-linolenic acid] as the molecule, how does the “prevention of atopic dermatitis (correction of dermatitis symptoms and blood IgE)” value (NC/Nga mice; same mouse model, diet containing a large amount of ALA, exact dose not known) read?
A: no effect of preventing atopic dermatitis

Q: With `CC/C=C\C/C=C\C/C=C\C/C=C\C/C=C\CCCC(=O)OCC` [EPA ethylester] as the molecule, how does the “eosinophil migration in the delayed type allergy” value (eosinophil migration; intraperitoneal administration of 100 mg) read?
A: can inhibit eosinophil migration

Q: For `CCCCC/C=C\C/C=C\C/C=C\CCCCCCC(=O)O` [DGLA, dihomo-γ-linolenic acid], which “amount of DGLA required to increase DGLA in serum phospholipid about 3% by weight” value [1] is on record?
A: about 100 mg per day

Q: And the “increase of DGLA in the serum phospholipid with each increase of about 32 mg in the amount of DGLA ingested” value [1]?
A: 1 % by weight

Q: For `CCCCC/C=C\C/C=C\C/C=C\CCCCC(=O)O` [GLA, γ-linolenic acid], which “formation of atopic dermatitis and IgE production” value (NC/Nga mice; NC/Nga mice, oral ingestion about 1250 mg/kg/day) is on record?
A: effects of inhibiting the formation of atopic dermatitis and IgE production
